Measured values taken from patent US9642860B2, “Combinations of corroles and statins” (Technion Research & Development Foundation Limited, priority 2011, dated 2017).

What was measured:
J774.A1 macrophages = test: Cholesterol biosynthesis model: acetate incorporation into cholesterol in macrophages; format: cell-based, Murine; conditions: 24 h incubation
Description: Accumulation of cholesterol within arterial macrophages is a step in the development of atherosclerosis (M. Aviram 2004). Statins can lower the levels of cholesterol biosynthesis in arterial macrophages. The cholesterol biosynthesis model which was employed determined the effect of various agents (pravastatin alone, fluvastatin alone, 1-Fe alone in various concentrations, 1-Fe in combination with pravastatin and 1-Fe in combination with fluvastatin) on reduction of cholesterol biosynthesis in macrophages.
Murine J774.A1 macrophages were cultured in DMEM (Dulbecco's Modified Eagle Medium) containing 5% FCS (fetal calf serum) in a humidified incubator. […] The effect of different concentrations of 1-Fe on cholesterol biosynthesis from acetate and on 1-Fe cellular uptake were determined by incubating J774.A1 macrophages for 24 h (hours) with 0, 5, 20 or 50 μM (micromolar) of 1-Fe. Intracellular corrole concentrations were then determined by a chemiluminescent method, and cholesterol biosynthesis was assayed by measuring acetate incorporation into cholesterol. […] Unesterified cholesterol spots were visualized by iodine vapor (using appropriate standard), scraped into scintillation vials and counted in a β-counter. 0.1 M (molar) NaOH (sodium hydroxide) was added to the remains of the cells, and cellular proteins were measured the following day by the Lowry method. […]

[1] = molecular target: T1, HMG-CoA reductase (HMGCR) (Homo sapiens, UniProt P04035); test: HMG-CoA reductase-catalyzed reaction inhibition (CoA byproduct by HPLC); format: biochemical; conditions: read-out: Inhibition Percent
T1 sequence (P04035 426-888 limits assumed): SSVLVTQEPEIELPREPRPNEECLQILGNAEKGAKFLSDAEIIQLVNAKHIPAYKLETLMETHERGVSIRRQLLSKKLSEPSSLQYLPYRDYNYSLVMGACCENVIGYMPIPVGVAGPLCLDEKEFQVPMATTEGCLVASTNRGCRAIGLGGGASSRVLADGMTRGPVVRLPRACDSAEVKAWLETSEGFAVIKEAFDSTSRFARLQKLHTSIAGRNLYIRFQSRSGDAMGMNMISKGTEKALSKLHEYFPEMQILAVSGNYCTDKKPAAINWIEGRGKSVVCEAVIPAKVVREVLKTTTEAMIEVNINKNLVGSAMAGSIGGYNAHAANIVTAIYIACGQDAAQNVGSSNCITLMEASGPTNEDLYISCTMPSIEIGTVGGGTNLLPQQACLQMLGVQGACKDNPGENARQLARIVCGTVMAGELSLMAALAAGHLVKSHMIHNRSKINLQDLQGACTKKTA
Description: The effects of 1-Fe and statins fluvastatin and pravastatin alone and in combination on mevalonic acid production were tested using the following in vitro method.
Substrates of the HMGCR catalyzed reaction, NADPH (400 μM] and HMGCR (200 μM) were mixed in activity buffer comprising 100 mM sodium phosphate buffer, 1 mM ethylenediaminetetraacetic acid (EDTA), 10 mM dithiothreitol, 2% dimethyl sulfoxide, and 1 mM magnesium sulphate, the mixture having a pH of 6.8. 1-Fe, PS, or FS (alone or as a corrole statin combination) were added to the substrate mixture at various concentrations, followed by addition of HMGCR (0.48 μM). Reactions were then incubated at 37° C. for 15 minutes, followed by injection of 80 μl (microliter) to a reverse phase GraceSmart RP18 high performance liquid chromatography column (HPLC). […] As mevalonate concentration is difficult to identify in reaction mixture because it has no absorbance in the UV range, the yield of each reaction was calculated from the amount of CoA byproduct formed in the reaction after subtracting the baseline amount of CoA present as an impurity in the commercial HMG-CoA determined by injecting the substrate mixture alone. The inhibition percentage was calculated from the yield of each reaction relative to the yield of the enzymatic reaction without the addition of inhibitor.

[2] = high dose 80 mg, over five years, compared to moderate dose statins; cited from earlier work

For `CC(C)n1c(/C=C/C(O)CC(O)CC(=O)O)c(-c2ccc(F)cc2)c2ccccc21` (centres unmarked) [FS, fluvastatin], which “reduction of macrophage biosynthesis of cholesterol” value (J774.A1 macrophages; 20 μM FS alone) is on record?
Its value is 25%.

What about the inhibition at 1 µM ([1]; FS 1 micromolar alone) of the same molecule?
Its inhibition at 1 µM is 9%.

Which results are given for `CC[C@H](C)C(=O)O[C@H]1C[C@H](O)C=C2C=C[C@H](C)[C@H](CC[C@@H](O)C[C@@H](O)CC(=O)O)[C@H]21` [PS, pravastatin]?
reduction of macrophage biosynthesis of cholesterol (J774.A1 macrophages; 200 μM PS alone): 10%; inhibition at 5 µM ([1]; PS 5 micromolar alone): 17%

For `CC(C)c1c(C(=O)Nc2ccccc2)c(-c2ccccc2)c(-c2ccc(F)cc2)n1CC[C@@H](O)C[C@@H](O)CC(=O)O` [atorvastatin], which “increase in the chance of developing Type 2 diabetes” value [2] is on record?
Its value is 12%.
